Here are results for one compound from article PMC3908613 (Bioscience Reports, 2014).

The target of one assay is T1, GST-Mst1 (Homo sapiens, UniProt Q13043).
T1 construct: GST; purchased DSTT
T1 sequence (Q13043 1-487): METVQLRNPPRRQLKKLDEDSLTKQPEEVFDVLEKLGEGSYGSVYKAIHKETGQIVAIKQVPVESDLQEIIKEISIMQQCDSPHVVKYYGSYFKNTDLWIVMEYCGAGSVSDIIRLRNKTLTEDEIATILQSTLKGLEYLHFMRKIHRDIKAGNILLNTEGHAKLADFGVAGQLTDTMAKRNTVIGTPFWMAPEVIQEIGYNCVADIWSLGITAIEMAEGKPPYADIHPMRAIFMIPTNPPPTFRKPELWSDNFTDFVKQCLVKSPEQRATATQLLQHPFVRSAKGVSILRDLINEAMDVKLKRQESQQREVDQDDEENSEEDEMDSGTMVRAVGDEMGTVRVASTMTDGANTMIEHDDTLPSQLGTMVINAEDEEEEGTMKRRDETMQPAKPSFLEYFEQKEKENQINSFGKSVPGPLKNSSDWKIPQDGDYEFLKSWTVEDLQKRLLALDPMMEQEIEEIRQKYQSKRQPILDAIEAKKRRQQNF
As to the kind of experiment: Kinase assay for recombinant Mst1. The format is biochemical. The following applies: 100 μM ATP, myelin basic protein substrate.

A further assay concerns BMDC. As to the kind of experiment: Immunoblot of phosphorylated signalling proteins in stimulated BMDC. The format is cell-based, C57BL/6 mice. The method, then: (§1) BMDC (1.5×10^6 cells) were incubated in 6-well plates in RPMI supplemented with 0.3% FCS for 5 h at 37°C. […] NIH3T3 cells (2×10^4) were plated in 6-well plates for 48 h at 37°C. The cells were deprived of serum for 8 h in DMEM supplemented with 2 mg/ml BSA (Sigma) and then stimulated with 100 ng/ml EGF (epidermal growth factor; Peprotech) for 5 min at 37°C.
(§2) Cells were washed in cold PBS, lysed on ice for 10 min in lysis buffer (1% Triton X-100 containing 50 mM Tris–HCl (pH 7.5), 150 mM NaCl, 1 mM EGTA, 1 mM EDTA, 10 mM NaF, 1 mM sodium orthovanadate and 5 mM sodium pyrophosphate and protease inhibitors (Roche)) and centrifuged for 10 min at 20000 g at 4°C.
BMDC (5×10^6 cells) were stimulated as described above. Lysates were pre-cleared with protein G Sepharose beads (Roche) for 30 min at 4°C. Paxillin was immunoprecipitated with 2 μg of anti-paxillin (Millipore) or with anti-IgG antibodies (Santa Cruz Biotechnology) for 1 h at 4°C and then incubated with 15 μl protein G Sepharose beads for 1 h at 4°C. Beads were washed four times with lysis buffer and paxillin was eluted with NuPage sample buffer (Invitrogen). The immunoprecipitated proteins were separated by electrophoresis on a 10% (w/v) NuPage gel and transferred onto a nitrocellulose membrane. The membrane was probed with anti-phospho Ser250-paxilin (kind gift of Luc Sabourin, McMaster University, Canada) or anti-paxillin antibodies.
On the technique in general: In western blotting, separated proteins are transferred to a membrane and probed.

Another assay concerns NIH3T3 cells. Kind of assay: Immunoblot of PKB phosphorylation in EGF-stimulated NIH3T3 cells. The assay is classed as cell-based. To be noted: EGF 100 ng/ml, 4 μM D1870. As to the method: as §1, §2
The next assay deals with T2, Mst1 (Mus musculus, UniProt Q9JI11).
T2 construct: Mst1, Lok and Slk were immunoprecipated from 150 μg, 850 μg and 1 mg of cell lysates respectively; endogenous in cells; host or cells: mouse bone-marrow-derived dendritic cells (BMDC), immunoprecipitate
T2 sequence (Q9JI11 1-487): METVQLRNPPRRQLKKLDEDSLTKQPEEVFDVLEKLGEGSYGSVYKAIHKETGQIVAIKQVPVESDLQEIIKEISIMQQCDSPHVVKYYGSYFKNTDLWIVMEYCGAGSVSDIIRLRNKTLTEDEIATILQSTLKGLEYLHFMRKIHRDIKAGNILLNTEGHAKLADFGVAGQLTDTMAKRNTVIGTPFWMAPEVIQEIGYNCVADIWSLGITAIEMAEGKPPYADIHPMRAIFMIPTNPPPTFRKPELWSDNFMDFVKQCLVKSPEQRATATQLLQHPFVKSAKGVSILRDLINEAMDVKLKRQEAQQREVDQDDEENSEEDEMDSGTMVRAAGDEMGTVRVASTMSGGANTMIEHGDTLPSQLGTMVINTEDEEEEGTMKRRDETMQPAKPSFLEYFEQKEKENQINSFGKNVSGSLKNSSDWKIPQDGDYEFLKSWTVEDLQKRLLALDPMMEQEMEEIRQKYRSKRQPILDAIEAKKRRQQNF
As to the kind of experiment: Activity of Mst1 immunoprecipitated from BMDC. The assay is classed as biochemical, C57BL/6 mice. To be noted: immunoprecipitates treated with 1 μM D1870; resting and LPS-stimulated DC. The method, then: (§3) Equal numbers of BMDC (1×10^7/dish) were incubated in 15 cm dishes in RPMI supplemented with 0.3% FCS for 3 h at 37°C then incubated for 30 min with or without 50 ng/ml LPS. The cells were washed once in cold PBS and lysed in the lysis buffer described above. Mst1, Lok and Slk were immunoprecipated from 150 μg, 850 μg and 1 mg of cell lysates respectively with 2 μg of anti-MST1 (Cell Signalling), anti-Slk (Bethyl) or anti-Lok (Bethyl) or control IgG (Santa Cruz Biotech) coupled to G-protein Sepharose (Amersham) for 1 h at 4°C. […] Kinase assays were performed as described above.
(§4) A combination of SILAC and nucleotide acyl
(§5) Alexander J. EDGAR*, Matthias TROST†, Colin WATTS*1 and Rossana ZARU*1
(§6) *Division of Cell Signalling and Immunolog y, University of Dundee, Dow Street, Dundee DD1 5EH, U.K., and †MRC Protein Phosphor ylation and Ubiquitylation Unit, College of Life Sciences, University of Dundee, Dow Street, Dundee DD1 5EH, U.K.
(§7) Supplementary Table S1 is available at http://www.bioscirep.
(§8) Mst1, Lok and Slk activities in DC either unstimulated or stimulated with LPS (50 ng/ml) for 30 min at 37 ◦ C. Immuno- […]
(§9) of triplicate stimulations. *P < 0.05, **P < 0.01, ***P < 0.001, ns not signiﬁcant.
(§10) 1 Correspondence may be addressed to either of these authors (email c.watts@dundee.ac.uk or r.zaru@dundee.ac.uk). […]

A further assay concerns the target T3, Lok (Mus musculus, UniProt O55098).
T3 construct: Mst1, Lok and Slk were immunoprecipated from 150 μg, 850 μg and 1 mg of cell lysates respectively; endogenous in cells; host or cells: mouse bone-marrow-derived dendritic cells (BMDC), immunoprecipitate
Kind of assay: Activity of Lok immunoprecipitated from BMDC. The assay is classed as biochemical, C57BL/6 mice. To be noted: immunoprecipitates treated with 1 μM D1870; resting and LPS-stimulated DC. As to the method:
as §3, §4, §5, §6, §7, §8, §9, §10

Another assay relates to Aurora B. The following applies: cited from earlier work.

T3 sequence (O55098 whole entry): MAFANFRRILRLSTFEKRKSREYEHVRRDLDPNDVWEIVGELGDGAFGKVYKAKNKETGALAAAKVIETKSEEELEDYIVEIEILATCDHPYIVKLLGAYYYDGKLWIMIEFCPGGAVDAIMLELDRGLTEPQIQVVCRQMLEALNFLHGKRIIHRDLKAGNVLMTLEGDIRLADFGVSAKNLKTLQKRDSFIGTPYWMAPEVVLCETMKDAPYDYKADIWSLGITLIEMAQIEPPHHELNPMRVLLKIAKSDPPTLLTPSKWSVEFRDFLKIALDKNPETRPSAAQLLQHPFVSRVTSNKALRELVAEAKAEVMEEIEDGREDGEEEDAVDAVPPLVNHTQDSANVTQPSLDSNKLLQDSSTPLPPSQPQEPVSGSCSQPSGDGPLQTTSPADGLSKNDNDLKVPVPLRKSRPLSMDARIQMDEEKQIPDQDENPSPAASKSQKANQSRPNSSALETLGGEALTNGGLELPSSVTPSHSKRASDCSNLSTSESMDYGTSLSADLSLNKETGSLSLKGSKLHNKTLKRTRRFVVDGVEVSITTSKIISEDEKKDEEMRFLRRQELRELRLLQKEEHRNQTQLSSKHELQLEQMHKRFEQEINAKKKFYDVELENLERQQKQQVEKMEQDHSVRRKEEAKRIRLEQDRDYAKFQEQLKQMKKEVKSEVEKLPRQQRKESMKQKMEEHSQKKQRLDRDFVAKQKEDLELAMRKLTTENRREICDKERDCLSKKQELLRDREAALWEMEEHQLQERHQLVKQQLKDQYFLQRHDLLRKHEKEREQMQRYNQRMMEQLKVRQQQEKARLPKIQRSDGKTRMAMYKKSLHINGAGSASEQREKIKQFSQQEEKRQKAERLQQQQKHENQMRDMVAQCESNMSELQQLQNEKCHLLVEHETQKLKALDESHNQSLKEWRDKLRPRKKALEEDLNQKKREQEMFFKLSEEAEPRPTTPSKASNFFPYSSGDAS

For orientation: IC50 means the concentration needed to halve the response being measured. In the case of `CC(C)CCN1c2nc(Nc3cc(F)c(O)c(F)c3)ncc2N(C)C(=O)C1C` (stereo not drawn) [D1870, BI-D1870], the IC50 at GST-Mst1 was approximately 300 nM. Besides, in the assay with BMDC (LPS 50 ng/ml, 30 min), the “Concentration blocking phosphorylation of Bad (Ser112)” value was not above 1 µM; the “Concentration blocking phosphorylation of filamin A (Ser2152)” value was not above 1 µM; the “Erk1/2, p38 or JNK1/2 phosphorylation” value is “Neither inhibitor had any effect”; the GSK3α/β phosphorylation result was “more potent”. For the same compound, in the assay with BMDC (LPS 50 ng/ml, 30 min), the “PKB phosphorylation at Ser473 and Thr308” value is “complete block”; the “Phosphorylation of MSK1 and MK2” value is “not affected”; the “phosphorylation of IκBα” value is recorded as “neither D1870 nor BIX affected”. Also, in the assay on BMDC (LPS, 30 min), the “phosphorylation of ERM proteins” value is “substantial decrease”. Besides, the “phosphorylation of paxillin on Ser250” value with BMDC (LPS, 30 min, paxillin immunoprecipitated) was “prevented its phosphorylation at low concentrations”. Moreover, in the assay on BMDC (MIP1α 100 ng/ml, 5 min, 4 μM D1870), the PKB phosphorylation result is “impaired”. Besides, the PKB phosphorylation result in the assay with NIH3T3 cells is given as “not affected”. Besides, the “kinase activity of Mst1 immunoprecipitated from DC” value on Mst1 was “substantially inhibited”. For the same compound, the “kinase activity of Lok immunoprecipitated from DC” value at Lok is on record as “substantially inhibited”. The IC50 in the assay on Aurora B is 340 nM.
